Data: patent EP2423181A1, “Multitarget substituted biphenyl diol derivatives” (PROUS INSTITUTE FOR BIOMEDICAL RESEARCH S.A., priority 2010, dated 2012)
Counter-ions that a name gives are not always drawn. Like-named read-outs stand apart in the source and are kept apart here.

How the values were obtained:
[1] = system: mice; details: formalin test, active dose of external active reference, cited from earlier work; for Dose (mg / Kg) Early Response: p.o.; for Dose (mg / Kg) Late Response: route not given
[2] = target: T1, 5-LO (Homo sapiens, UniProt P09917); experiment: 5-Lipoxygenase inhibition (LTB4 enzyme immunoassay); format: biochemical
T1 construct: host or cells: Sf9 insect cells
T1 sequence (P09917 1-674): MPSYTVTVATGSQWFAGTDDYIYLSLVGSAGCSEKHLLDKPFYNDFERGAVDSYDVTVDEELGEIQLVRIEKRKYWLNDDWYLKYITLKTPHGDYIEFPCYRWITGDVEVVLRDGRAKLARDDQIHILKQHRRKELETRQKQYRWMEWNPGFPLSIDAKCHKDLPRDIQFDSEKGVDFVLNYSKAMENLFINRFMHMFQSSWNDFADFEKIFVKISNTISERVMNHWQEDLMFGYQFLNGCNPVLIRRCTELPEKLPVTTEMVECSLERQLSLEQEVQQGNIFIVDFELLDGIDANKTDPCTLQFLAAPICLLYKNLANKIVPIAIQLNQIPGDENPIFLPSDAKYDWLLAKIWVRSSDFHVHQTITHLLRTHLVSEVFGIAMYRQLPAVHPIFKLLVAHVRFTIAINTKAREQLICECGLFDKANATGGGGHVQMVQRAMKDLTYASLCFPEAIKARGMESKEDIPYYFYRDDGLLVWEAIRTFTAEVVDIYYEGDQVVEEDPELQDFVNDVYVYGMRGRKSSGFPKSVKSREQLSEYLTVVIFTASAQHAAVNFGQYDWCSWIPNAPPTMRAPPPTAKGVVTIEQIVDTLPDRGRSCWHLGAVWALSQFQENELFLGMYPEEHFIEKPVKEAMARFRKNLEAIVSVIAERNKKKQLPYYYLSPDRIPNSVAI
Method: The 5-LO-inhibitory activity of compounds of the invention was determined using previously reported assays. Briefly, lipoxygenase activity was evaluated in human recombinant insect Sf9 cells using 3µM arachidonic acid as a substrate with a preincubation and incubation times of 15 and 5 min respectively at 25°C in a 50 mM Tris-HCl, pH 7.4, 2 mM CaCl2, 1 mM ATP. The quantification method used was enzyme immunoassay determination of LTB4 and the significance criteria were established with a response equal or different of the maximum stimulation or inhibition (Noguchi, M. et al., Eur J Biochem, 1994, 222(2), 285-292; Percival, M.D. et al., Eur J Biochem, 1992, 210(1), 109-117).

[3] = Maximum Tolerated Dose after acute administration; details: mouse, in vivo, po, mice
Method: The Maximum Tolerated Dose (MTD) in mice was determined for selected compounds. The protocol of the studies was in accordance with the standard guidelines for drug development: • (htp://dtp.nci.nih.gov/branches/btb/acute tox.html). Table 10. Maximum Tolerated Doses in mice after acute i.p. administration

[4] = target: T2, COX-1 (Homo sapiens, UniProt P23219); experiment: COX-1 inhibition in human platelets (PGE2 enzyme immunoassay); format: biochemical; details: read-out: % COX-1 Inhibition
T2 construct: endogenous in cells; host or cells: human platelets
Method: (§1) The COX-1 inhibitory activity of representative compounds of the invention was determined according to previously reported methods. COX-1 activity was assessed in human platelets using 100 µM arachidonic acid as a substrate and preincubation and incubation times of 15 min at 37 °C in HBSS, 15 mM HEPES pH 7.4 . The quantification method used was enzyme immunoassay determination of PGE2 (Chan, C.C. et al. J Pharmacol Exp Ther, 1999, 290, 551-560; Swinney, D.C. et al. J Biol Chem, 1997, 272, 12393-12398; Warner, T.D. et al. Proc Natl Acad Sci U S A, 1999, 96, 7563-7568; Riendeau, D. et al. Can J Physiol Pharmacol, 1997, 75, 1088-1095). COX-2 inhibitory activity was determined in human recombinant insect Sf21 cells according to references (Warner, T.D. et al., Proc Natl Acad Sci, USA. 1999;96(13):7563-7568; Riendeau, D. et al., Can J Physiol Pharmacol, 1997 ;75(9):1088-1095). Briefly, the COX-2 inhibitory activity was assessed on human recombinant insect Sf21 cells using 0.3 µM arachidonic acid as a substrate and preincubation and incubation times of 15 and 5 min, respectively, at 37 °C in 100 mM Tris-HCl, pH 7.7. The quantification method used was enzyme immunoassay determination of PGE2. Table 11. Inhibition of COX-1 and COX-2 at 10 µM

[5] = target: T3, COX-2 (Homo sapiens, UniProt P35354); experiment: COX-2 inhibition (PGE2 enzyme immunoassay); format: biochemical; details: read-out: % COX-2 inhibition
T3 construct: host or cells: Sf21 insect cells
T3 sequence (P35354 18-604): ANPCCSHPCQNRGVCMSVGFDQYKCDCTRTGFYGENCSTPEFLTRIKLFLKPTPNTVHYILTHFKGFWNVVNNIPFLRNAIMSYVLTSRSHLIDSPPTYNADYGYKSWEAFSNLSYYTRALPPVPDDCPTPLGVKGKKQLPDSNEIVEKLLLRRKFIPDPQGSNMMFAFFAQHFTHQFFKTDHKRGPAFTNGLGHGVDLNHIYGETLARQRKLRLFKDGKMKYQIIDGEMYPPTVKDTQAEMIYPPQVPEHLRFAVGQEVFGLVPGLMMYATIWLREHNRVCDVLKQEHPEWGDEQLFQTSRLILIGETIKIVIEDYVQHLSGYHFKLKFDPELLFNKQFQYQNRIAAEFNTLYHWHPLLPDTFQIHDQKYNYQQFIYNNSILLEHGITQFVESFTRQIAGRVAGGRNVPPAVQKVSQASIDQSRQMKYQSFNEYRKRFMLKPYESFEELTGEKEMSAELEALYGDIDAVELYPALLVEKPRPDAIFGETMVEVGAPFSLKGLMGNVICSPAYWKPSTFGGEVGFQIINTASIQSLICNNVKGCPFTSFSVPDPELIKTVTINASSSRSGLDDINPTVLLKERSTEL
Method: as §1

[6] = system: tumor melanoma B16-FO; experiment: Tumor cell proliferation assay (alamarBlue); format: cell-based, murine; details: Mus musculus
Method: (§2) Changes in cell proliferation were detected based on the ability of viable cells to cause alamarBlue® to change its oxidized (non-fluorescent, blue) to a reduced (fluorescent, red) form. The alamarBlue® reaction allows the quantification of cell proliferation and examination of the metabolic activity of viable cells. Test substances were examined for activity on the proliferation of human or murine tumor cell lines at assay concentrations from 0.01 to 100 µM.

[7] = system: tumor colon HCT-116; experiment: Tumor cell proliferation assay (alamarBlue); format: cell-based; details: Homo sapiens, HCT-116
Method: as §2

[8] = system: tumor leukaemia K562; experiment: Tumor cell proliferation assay (alamarBlue); format: cell-based; details: Homo sapiens, K562
Method: as §2

[9] = system: tumor liver HepG2; experiment: Tumor cell proliferation assay (alamarBlue); format: cell-based; details: Homo sapiens, HepG2
Method: as §2

[10] = system: tumor ovary OVCAR-3; experiment: Tumor cell proliferation assay (alamarBlue); format: cell-based; details: Homo sapiens, OVCAR-3
Method: as §2

[11] = system: tumor brain U-87 MG; experiment: Tumor cell proliferation assay (alamarBlue); format: cell-based; details: Homo sapiens, U-87 MG
Method: as §2

[12] = system: tumor lung A549; experiment: Tumor cell proliferation assay (alamarBlue); format: cell-based; details: Homo sapiens, A549
Method: as §2

[13] = system: tumor prostate LNCaP-FGC; experiment: Tumor cell proliferation assay (alamarBlue); format: cell-based; details: Homo sapiens
Method: as §2

[14] = target: T4, EGFR (Homo sapiens, UniProt P00533); experiment: EGF receptor tyrosine-protein kinase inhibition (ELISA of Poly[Glu:Tyr-P]); format: biochemical
T4 construct: EGF receptor tyrosin-protein kinase activity was assessed in human A431 cells; endogenous in cells; host or cells: human A431 cells
Method: EGF receptor tyrosin-protein kinase activity was assessed in human A431 cells using as a substrate Poly(Glu:Tyr) at 10 µg/ml with a preincubation and incubation times of 15 and 60 min, respectively, at 25°C respectively in 50 mM HEPES pH 7.4, 20 mM MgCl2 and 0.2 mM Na3VO4. An ELISA quantification method of Poly[Glu:Tyr-P] was employed (Cheng, K. and Koland, J.G. J Biol Chem, 1996, 271, 311-318). Table 5. Inhibition of EGFR at 10 µM

[15] = log D octanol/water distribution coefficient; format: physicochemical
Text: Lipophilicity has been correlated to various drug properties, affecting permeability, absorption, distribution, plasma protein binding, metabolism, elimination, and toxicity. In contrast to honokiol and magnolol, compounds claimed in the invention, and more particularly those wherein the nitrogen atom in the group -O-CH(phenyl)-(CH2)p-NH-R^3 is protonated and the compound further comprises a pharmaceutically acceptable counter-anion present an optimal log Doctanol/water (range 0-3), indicating good aqueous solubility, permeability, oral absorption, and blood-brain barrier penetration. Experimental studies in murine models have confirmed the results.
Absorption, distribution and metabolism studies in vitro with selected examples were performed in order to determine pharmacokinetic parameters such as permeability (or absorption constant), intrinsic clearance (or metabolic clearance), and bioavailability. Physicochemical properties such as water solubility, pKa, log P, and log Doctanol/water, and in vitro experimental studies such as permeability in Caco2 cells, and protein binding in the mouse, stability in murine microsomes, chemical stability at different pH and stability in plasma were evaluated for the pharmacokinetic prediction in mice.

[16] = system: mice; experiment: Formalin test (antinociceptive activity); format: in vivo; details: formalin test, dose 10 mg/Kg i.p.
Method: The chemical irritant formalin test is used as a chronic pain model in animals. The s.c. administration of formalin to the paw of a mouse produces a biphasic nociceptive behavioral response, an early response (0-5 min after injection) and a late response (20-30 min after injection) (Hunskaar, S., Fasmer, O.B., Hole, K. Formalin test in mice, a useful technique for evaluating mild analgesics. J Neurosci Methods, 1985 ;14(1):69-76).
Aspirine and paracetamol are included as external active references in early and late response. Table 12. Early and late response inhibition in the formalin test.

[17] = 5-LO, at 10 µM, read-out: % Inhibition

T2 sequence (P23219 24-599): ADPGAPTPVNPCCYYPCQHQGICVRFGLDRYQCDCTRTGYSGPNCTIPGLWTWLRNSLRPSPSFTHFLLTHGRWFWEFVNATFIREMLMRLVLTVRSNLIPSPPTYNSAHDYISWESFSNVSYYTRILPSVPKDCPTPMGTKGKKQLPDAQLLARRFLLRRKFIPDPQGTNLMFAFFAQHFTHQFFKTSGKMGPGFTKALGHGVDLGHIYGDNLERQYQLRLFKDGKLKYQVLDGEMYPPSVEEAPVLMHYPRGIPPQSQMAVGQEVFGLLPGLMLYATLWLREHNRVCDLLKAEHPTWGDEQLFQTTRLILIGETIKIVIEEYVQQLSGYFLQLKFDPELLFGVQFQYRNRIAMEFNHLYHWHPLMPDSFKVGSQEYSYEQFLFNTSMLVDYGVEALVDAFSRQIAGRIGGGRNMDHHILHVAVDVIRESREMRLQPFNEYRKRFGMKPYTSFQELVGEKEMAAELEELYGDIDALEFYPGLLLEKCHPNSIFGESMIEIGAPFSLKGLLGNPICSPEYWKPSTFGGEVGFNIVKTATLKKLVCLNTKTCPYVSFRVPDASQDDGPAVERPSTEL
T4 sequence (P00533 25-1210): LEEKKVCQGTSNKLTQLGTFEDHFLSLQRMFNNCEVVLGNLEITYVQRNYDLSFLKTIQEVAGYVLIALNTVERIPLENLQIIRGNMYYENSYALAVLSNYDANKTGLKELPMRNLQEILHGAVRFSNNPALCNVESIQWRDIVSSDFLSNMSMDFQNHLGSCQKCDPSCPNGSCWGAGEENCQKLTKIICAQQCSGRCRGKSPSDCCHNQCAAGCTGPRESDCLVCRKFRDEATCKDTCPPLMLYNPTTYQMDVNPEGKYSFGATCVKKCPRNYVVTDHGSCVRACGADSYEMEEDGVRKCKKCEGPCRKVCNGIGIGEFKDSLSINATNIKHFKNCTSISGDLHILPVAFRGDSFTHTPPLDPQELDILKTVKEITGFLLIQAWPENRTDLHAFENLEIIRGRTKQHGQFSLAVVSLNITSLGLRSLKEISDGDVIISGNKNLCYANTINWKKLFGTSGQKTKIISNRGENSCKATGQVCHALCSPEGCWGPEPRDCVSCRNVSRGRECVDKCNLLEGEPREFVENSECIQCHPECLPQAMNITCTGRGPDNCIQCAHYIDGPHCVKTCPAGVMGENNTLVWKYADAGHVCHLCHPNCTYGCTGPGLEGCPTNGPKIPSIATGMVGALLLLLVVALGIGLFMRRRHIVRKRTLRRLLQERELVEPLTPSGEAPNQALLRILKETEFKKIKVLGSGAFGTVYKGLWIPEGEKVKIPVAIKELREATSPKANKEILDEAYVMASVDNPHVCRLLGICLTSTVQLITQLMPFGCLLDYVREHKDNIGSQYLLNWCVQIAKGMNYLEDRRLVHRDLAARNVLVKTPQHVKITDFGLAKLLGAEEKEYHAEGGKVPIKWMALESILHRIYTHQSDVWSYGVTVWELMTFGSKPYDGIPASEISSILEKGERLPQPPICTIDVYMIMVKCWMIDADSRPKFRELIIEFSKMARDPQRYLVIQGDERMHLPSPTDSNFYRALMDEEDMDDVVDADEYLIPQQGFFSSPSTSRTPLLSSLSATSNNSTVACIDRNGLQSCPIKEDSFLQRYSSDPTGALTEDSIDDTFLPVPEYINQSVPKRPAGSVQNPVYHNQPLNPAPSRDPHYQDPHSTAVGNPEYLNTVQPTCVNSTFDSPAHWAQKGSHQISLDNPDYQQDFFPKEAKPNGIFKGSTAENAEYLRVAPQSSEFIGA

For `CC(=O)Oc1ccccc1C(=O)O` [Aspirin], the “Dose (mg / Kg) Early Response” value [1] is listed as 200-400 p.o. mg / Kg and the “Dose (mg / Kg) Late Response” value [1] is listed as 300 to 400 mg/kg.
Work on `C=CCc1ccc(OC(CCNC)c2ccccc2)c(-c2ccc(O)c(CC=C)c2)c1.Cl` (stereo not drawn) [Example 4, 3,5'-Diallyl-2'-[3-(methylamino)-1-phenylpropoxy]biphenyl-4-ol hydrochloride] yielded an inhibition at 10 µM [2, 17] of 100%, an MTD [3] of 30 mg/kg and an inhibition at 10 µM ([4]; at 10 µM, human platelets) of 81%. It also gave an inhibition at 10 µM ([5]; at 10 µM) of 0%.
`CCCc1ccc(O)c(-c2ccc(OC(CCNC)c3ccccc3)c(CCC)c2)c1` (stereo not drawn) [Example 6, 4'-[3-(Methylamino)-1-phenylpropoxy]-3',5-dipropylbiphenyl-2-ol hydrochloride] gave an inhibition at 10 µM [2, 17] of 100%.
`C=CCc1ccc(O)c(-c2cc(CC=C)ccc2O)c1` [Magnolol, reference compound] gave an IC50 [6] of 28 µM, an inhibition at 10 µM [2] of 67% and an IC50 [7] of 17 µM. The IC50 [8] was 48 µM, the IC50 [9] was 12 µM and the IC50 [10] was 23 µM. The IC50 [11] was 48 µM, the IC50 [12] was 19 µM and the IC50 [13] was 5.1 µM. For the same molecule, the inhibition at 10 µM [14] was -26%, the logDoctanol/water [15] was 5.25 and the inhibition at 10 µM [4] was 21%. The inhibition at 10 µM [5] was 95%.
For `CN1CC[C@]23c4c5ccc(O)c4O[C@H]2[C@@H](O)C=C[C@H]3[C@H]1C5` [Morphine, reference compound], the “Early Response” value ([16]; early response 0-5 min) was “active” and the “Late Response” value ([16]; late response 20-30 min) was “active”.
In the case of `CC(=O)Nc1ccc(O)cc1` [Paracetamol], the “Dose (mg / Kg) Early Response” value [1] is given as 200-400 p.o. mg / Kg and the “Dose (mg / Kg) Late Response” value [1] is given as 300 to 400 mg/kg.
